Measurements published in publication PMC5902538, “Metabolic benefits of 1-(3-(4-(o-tolyl)piperazin-1-yl)propyl)pyrrolidin-2-one: a non-selective α-adrenoceptor antagonist” (Journal of Endocrinological Investigation, 2017).

Assays:
Format in all cases: cell-based
[1] = target: T1, α2B-adrenoceptor (Homo sapiens, UniProt P18089); experiment: intrinsic activity (antagonist) assay in ready-to-use cells stably expressing the receptor (Perkin Elmer)
T1 construct: gene ADRA2B
T1 sequence (P18089 1-450): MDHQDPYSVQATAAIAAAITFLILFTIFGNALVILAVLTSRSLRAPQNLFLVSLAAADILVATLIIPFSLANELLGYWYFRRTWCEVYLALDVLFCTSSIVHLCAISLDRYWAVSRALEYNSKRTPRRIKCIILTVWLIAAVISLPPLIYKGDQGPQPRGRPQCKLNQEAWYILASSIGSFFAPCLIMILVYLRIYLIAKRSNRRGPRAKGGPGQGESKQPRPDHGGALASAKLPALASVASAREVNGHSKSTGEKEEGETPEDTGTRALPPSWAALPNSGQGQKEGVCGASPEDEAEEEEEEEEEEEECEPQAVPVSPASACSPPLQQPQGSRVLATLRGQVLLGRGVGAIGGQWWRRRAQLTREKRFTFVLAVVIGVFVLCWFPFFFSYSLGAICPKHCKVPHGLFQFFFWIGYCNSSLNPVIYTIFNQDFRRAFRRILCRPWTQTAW

[2] = target: T2, α1B-adrenoceptor (Homo sapiens, UniProt P35368); experiment: as above
T2 construct: gene ADRA1B
T2 sequence (P35368 1-520): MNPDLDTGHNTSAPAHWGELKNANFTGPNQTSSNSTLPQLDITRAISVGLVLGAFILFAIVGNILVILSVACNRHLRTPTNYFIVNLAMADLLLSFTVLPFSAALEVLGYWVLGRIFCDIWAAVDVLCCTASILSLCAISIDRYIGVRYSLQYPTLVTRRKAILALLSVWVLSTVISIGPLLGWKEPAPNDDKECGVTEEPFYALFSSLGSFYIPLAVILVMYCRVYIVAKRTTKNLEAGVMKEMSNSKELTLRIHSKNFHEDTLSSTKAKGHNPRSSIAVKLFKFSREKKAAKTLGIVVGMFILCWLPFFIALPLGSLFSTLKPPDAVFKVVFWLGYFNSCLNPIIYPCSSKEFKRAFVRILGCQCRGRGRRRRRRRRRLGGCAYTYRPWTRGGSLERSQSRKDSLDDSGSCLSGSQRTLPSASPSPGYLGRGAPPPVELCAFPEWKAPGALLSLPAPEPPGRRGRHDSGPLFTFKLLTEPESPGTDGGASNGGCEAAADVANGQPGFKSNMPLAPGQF

[3] = target: T3, α1A-adrenoceptor (Homo sapiens, UniProt P35348); experiment: intrinsic activity (antagonist) assay in ready-to-use cells stably expressing the receptor (Invitrogen)
T3 construct: gene ADRA1A
T3 sequence (P35348 1-466): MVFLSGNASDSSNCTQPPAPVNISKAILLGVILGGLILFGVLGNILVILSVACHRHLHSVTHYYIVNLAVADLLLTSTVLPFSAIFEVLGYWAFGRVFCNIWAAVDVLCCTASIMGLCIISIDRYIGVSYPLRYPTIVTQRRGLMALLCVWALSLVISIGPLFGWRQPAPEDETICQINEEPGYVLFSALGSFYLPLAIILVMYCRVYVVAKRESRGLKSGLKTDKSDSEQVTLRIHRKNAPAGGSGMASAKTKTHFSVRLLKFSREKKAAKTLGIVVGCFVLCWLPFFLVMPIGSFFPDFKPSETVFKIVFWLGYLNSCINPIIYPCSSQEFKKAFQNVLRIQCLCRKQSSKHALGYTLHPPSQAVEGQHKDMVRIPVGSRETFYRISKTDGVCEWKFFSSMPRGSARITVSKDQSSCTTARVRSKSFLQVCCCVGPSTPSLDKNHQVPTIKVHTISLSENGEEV

[4] = target: T4, α2A-adrenoceptor (Homo sapiens, UniProt P08913); experiment: as above
T4 construct: gene ADRA2A
T4 sequence (P08913 1-465): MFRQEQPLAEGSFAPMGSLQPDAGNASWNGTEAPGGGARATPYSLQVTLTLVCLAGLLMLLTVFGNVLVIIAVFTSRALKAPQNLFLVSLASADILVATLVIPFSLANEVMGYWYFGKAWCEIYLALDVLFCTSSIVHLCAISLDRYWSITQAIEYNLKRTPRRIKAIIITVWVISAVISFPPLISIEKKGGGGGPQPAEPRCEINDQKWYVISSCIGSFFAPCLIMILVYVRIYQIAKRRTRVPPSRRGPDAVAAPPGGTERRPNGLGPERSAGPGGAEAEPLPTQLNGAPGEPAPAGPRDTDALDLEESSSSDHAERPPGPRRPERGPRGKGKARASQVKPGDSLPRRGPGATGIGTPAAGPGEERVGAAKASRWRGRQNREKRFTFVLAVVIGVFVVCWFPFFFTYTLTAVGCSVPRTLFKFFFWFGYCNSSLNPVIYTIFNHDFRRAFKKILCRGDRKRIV

SMILES: Cc1ccccc1N1CCN(CCCN2CCCC2=O)CC1 [EP-47, 1-(3-(4-(o-tolyl)piperazin-1-yl)propyl)pyrrolidin-2-one]
- IC50 [1]: 2070 ± 690 nM
- IC50 [2]: 32.6 ± 0.69 nM
- IC50 [3]: 42500 ± 11200 nM
- IC50 [4]: 213 ± 32 nM
